Laboratory results published in patent US20080161269A1, “Compounds 620” (ASTRAZENECA AB, priority 2006, published 2008).
Counter-ions that a name gives are not always drawn.

target: human β-Secretase (Homo sapiens, UniProt P56817); assay: TR-FRET assay; format: biochemical; conditions: enzyme (truncated form) 0.3 nM; substrate (Europium)CEVNLDAEFK(Qsy7) 100 nM; pH4.5; 15 minutes at room temperature
Protocol: The enzyme used in the IGEN Cleavage-, Fluorescent-, TR-FRET- and the BiaCore assay is described as follows:
The gene was fused to the Fc domain of IgG1 (affinity tag) and stably cloned into HEK 293 cells. Purified sBACE-Fc is stored in Tris buffer, pH 9.2 and has a purity of 95%.
Dilute the enzyme (truncated form) to 6 μg/mL (stock 1.3 mg/mL) and the substrate (Europium)CEVNLDAEFK(Qsy7) to 200 nM (stock 60 μM) in reaction buffer (NaAcetate, chaps, triton x-100, EDTA pH4.5). The Biomek FX is used for all liquid handling and the enzyme and substrate solutions are kept on ice until they are placed in Biomek FX. Enzyme (9 μl) is added to the plate then 1 μl of compound in dimethylsulphoxide is added, mixed and pre-incubated for 10 minutes. Substrate (10 μl) is then added, mixed and the reaction proceeds in the dark for 15 minutes at room temperature. The reaction is stopped with the addition of Stop solution (7 μl, NaAcetate pH 9). The fluorescence of the product is measured on a Wallac Victor II plate reader with an excitation wavelength of 340 nm and an emission wavelength of 615 nm. The assay is done in a Costar 384 well round bottom, low volume, non-binding surface (Corning #3676). The final concentration of the enzyme is 0.3 nM; the final concentration of substrate is 100 nM (Km of ˜250 nM). The dimethylsulphoxide control defines the 100% activity level and 0% activity is defined by exclusion of the enzyme, only using reaction buffer instead.

Chain of human β-Secretase (P56817 22-460): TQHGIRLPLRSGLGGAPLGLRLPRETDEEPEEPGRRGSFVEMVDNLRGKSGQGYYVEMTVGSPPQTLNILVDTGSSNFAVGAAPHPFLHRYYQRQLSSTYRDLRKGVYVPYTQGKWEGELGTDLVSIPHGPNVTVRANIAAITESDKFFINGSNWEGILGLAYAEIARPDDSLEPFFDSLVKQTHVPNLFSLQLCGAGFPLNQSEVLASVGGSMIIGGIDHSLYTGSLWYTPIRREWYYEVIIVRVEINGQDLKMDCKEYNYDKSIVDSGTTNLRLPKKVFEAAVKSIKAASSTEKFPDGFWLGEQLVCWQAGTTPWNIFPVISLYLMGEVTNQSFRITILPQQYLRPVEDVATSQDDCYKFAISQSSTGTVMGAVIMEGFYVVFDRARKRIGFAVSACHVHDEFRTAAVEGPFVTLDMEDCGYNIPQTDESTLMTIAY

Compound	IC50 [nM]
CN1C(=O)C(c2cccc(-c3cncc(Cl)c3)c2)(c2cccc([Si](C)(C)C)c2)N=C1N (stereo not shown) [Example 27, 2-amino-4-(3-(5-chloropyridin-3-yl)phenyl)-1-methyl-4-(3-(trimethylsilyl)phenyl)-1H-imidazol-5(4H)-one]	163
CN1C(=O)C(c2ccc([Si](C)(C)C)cc2)(c2cccc(-c3cnn(C)c3)c2)N=C1N (stereo not shown) [Example 22, 2-amino-3-methyl-5-[3-(1-methylpyrazol-4-yl)phenyl]-5-(4-trimethylsilylphenyl)imidazol-4-one Acetic Acid Salt]	2740
Cc1ncc(-c2cccc(C3(c4ccc([Si](C)(C)C)cc4)N=C(N)N(C)C3=O)c2)cn1 (stereo not shown) [Example 23, 2-amino-3-methyl-5-[3-(2-methylpyrimidin-5-yl)phenyl]-5-(4-trimethylsilylphenyl)imidazol-4-one acetic acid salt]	2260
CN1C(=O)C(c2cccc(-c3cccnc3)c2)(c2cccc([Si](C)(C)C)c2)N=C1N (stereo not shown) [Example 29, 2-amino-1-methyl-4-(3-(pyridin-3-yl)phenyl)-4-(3-(trimethylsilyl)phenyl)-1H-imidazol-5(4H)-one]	202
CN1C(=O)C(c2ccc([Si](C)(C)C)cc2)(c2cccc(-c3cncnc3)c2)N=C1N (racemic) [Example 14, 2-Amino-3-methyl-5-(3-pyrimidin-5-ylphenyl)-5-[4-(trimethylsilyl)phenyl]-3,5-dihydro-4H-imidazol-4-one]	107
CN1C(=O)C(c2ccc([Si](C)(C)C)cc2)(c2cccc(-c3cncnc3)c2)N=C1N (single isomer, unassigned) [Example 15 (isomer 2), 2-amino-3-methyl-5-(3-pyrimidin-5-ylphenyl)-5-[4-(trimethylsilyl)phenyl]-3,5-dihydro-4H-imidazol-4-one]	> 10000
CN1C(=O)C(c2cccc(-c3ccc(F)nc3)c2)(c2cccc([Si](C)(C)C)c2)N=C1N (stereo not shown) [Example 28, 2-amino-4-(3-(6-fluoropyridin-3-yl)phenyl)-1-methyl-4-(3-(trimethylsilyl)phenyl)-1H-imidazol-5(4H)-one]	278
CN1C(=O)C(c2cccc(-c3cncnc3)c2)(c2cccc([Si](C)(C)C)c2)N=C1N (stereo not shown) [Example 26, 2-amino-1-methyl-4-(3-(pyrimidin-5-yl)phenyl)-4-(3-(trimethylsilyl)phenyl)-1H-imidazol-5(4H)-one]	135
CN1C(=O)C(c2cccc(-c3cnccn3)c2)(c2cccc([Si](C)(C)C)c2)N=C1N (stereo not shown) [Example 32, 2-amino-1-methyl-4-(3-(pyrazin-2-yl)phenyl)-4-(3-(trimethylsilyl)phenyl)-1H-imidazol-5(4H)-one]	86
COc1cccc(-c2cccc(C3(c4ccc([Si](C)(C)C)cc4)N=C(N)N(C)C3=O)c2)c1 (stereo not shown) [Example 12, 2-Amino-5-(3′-methoxybiphenyl-3-yl)-3-methyl-5-[4-(trimethylsilyl)phenyl]-3,5-dihydro-4H-imidazol-4-one]	84
COc1cncc(-c2cccc(C3(c4ccc([Si](C)(C)C)cc4)N=C(N)N(C)C3=O)c2)c1 (stereo not shown) [Example 16, 2-amino-5-[3-(5-methoxypyridin-3-yl)phenyl]-3-methyl-5-(4-trimethylsilylphenyl)imidazol-4-one acetic acid salt]	23
COc1cccc(-c2cccc(C3(c4cccc([Si](C)(C)C)c4)N=C(N)N(C)C3=O)c2)n1 (stereo not shown) [Example 31, 2-amino-4-(3-(6-methoxypyridin-2-yl)phenyl)-1-methyl-4-(3-(trimethylsilyl)phenyl)-1H-imidazol-5(4H)-one]	1530
CN1C(=O)C(c2cccc(-c3cccnc3F)c2)(c2cccc([Si](C)(C)C)c2)N=C1N (stereo not shown) [Example 30, 2-amino-4-(3-(2-fluoropyridin-3-yl)phenyl)-1-methyl-4-(3-(trimethylsilyl)phenyl)-1H-imidazol-5(4H)-one]	182
CN1C(=O)C(c2ccc([Si](C)(C)C)cc2)(c2cccc(-c3cnc(F)nc3)c2)N=C1N (stereo not shown) [Example 25, 2-amino-5-[3-(2-fluoropyrimidin-5-yl)phenyl]-3-methyl-5-(4-trimethylsilylphenyl)imidazol-4-one]	460

Second part, the molecule after the results:

IC50 [nM]	Compound
460	CN1C(=O)C(c2ccc([Si](C)(C)C)cc2)(c2cccc(-c3cnccc3C#N)c2)N=C1N (stereo not shown) [Example 21, 3-[3-[2-amino-1-methyl-5-oxo-4-(4-trimethylsilylphenyl)imidazol-4-yl]phenyl]pyridine-4-carbonitrile Acetic Acid Salt]
118	CN1C(=O)C(c2ccc([Si](C)(C)C)cc2)(c2cccc(-c3cccnc3)c2)N=C1N (stereo not shown) [Example 17, 2-amino-3-methyl-5-(3-pyridin-3-ylphenyl)-5-(4-trimethylsilylphenyl)imidazol-4-one acetic acid salt]
118	CN1C(=O)C(c2ccc([Si](C)(C)C)cc2)(c2cccc(-c3cncc(C#N)c3)c2)N=C1N (stereo not shown) [Example 19, 5-[3-[2-amino-1-methyl-5-oxo-4-(4-trimethylsilylphenyl)imidazol-4-yl]phenyl]pyridine-3-carbonitrile acetic acid salt]
81	CN1C(=O)C(c2ccc([Si](C)(C)C)cc2)(c2cccc(-c3cccnc3F)c2)N=C1N (stereo not shown) [Example 13, 2-Amino-5-[3-(2-fluoropyridin-3-yl)phenyl]-3-methyl-5-[4-(trimethylsilyl)phenyl]-3,5-dihydro-4H-imidazol-4-one]
180	CN1C(=O)C(c2ccc([Si](C)(C)C)cc2)(c2cccc(-c3cncc(F)c3)c2)N=C1N (stereo not shown) [Example 18, 2-amino-5-[3-(5-fluoropyridin-3-yl)phenyl]-3-methyl-5-(4-trimethylsilylphenyl)imidazol-4-one acetic acid salt]
41	CN1C(=O)C(c2ccc([Si](C)(C)C)cc2)(c2cccc(-c3cncnc3)c2)N=C1N (single isomer, unassigned) [Example 15 (isomer 1), 2-amino-3-methyl-5-(3-pyrimidin-5-ylphenyl)-5-[4-(trimethylsilyl)phenyl]-3,5-dihydro-4H-imidazol-4-one]
80	CN1C(=O)C(c2ccc([Si](C)(C)C)cc2)(c2cccc(-c3cnccn3)c2)N=C1N (stereo not shown) [Example 24, 2-amino-3-methyl-5-(3-pyrazin-2-ylphenyl)-5-(4-trimethylsilylphenyl)imidazol-4-one]
437	CN1C(=O)C(c2ccc([Si](C)(C)C)cc2)(c2cccc(-c3ccc(F)nc3)c2)N=C1N (stereo not shown) [Example 20, 2-amino-5-[3-(6-fluoropyridin-3-yl)phenyl]-3-methyl-5-(4-trimethylsilylphenyl)imidazol-4-one Acetic Acid Salt]
